The results in this text go back to patent US11130769B2 (Prelude Therapeutics Incorporated, priority 2018, dated 2021).

The target of one data set is MCL-1 (Homo sapiens (Human), UniProt Q07820). In words: Cell free Mcl-1:Bim affinity assay (fluorescence polarization competition). The class given is binding. The conditions noted are these: 15 nM MCL-1, 5 nM FITC-Bim, 1 hour at room temperature; class symbols; read-out: BIM_Ki. In outline:
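Compounds competed with FITC-labelled Bim peptide (5 nM) for MCL-1 (15 nM) in HEPES/NaCl buffer with 1% DMSO, 1 h at room temperature. Fluorescence polarization (535 nm emission) gave % inhibition versus DMSO and positive controls; IC50 from 10-point curves, converted to Ki by the Nikolovska-Coleska equation.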

The test system of a further data set is H929 cells. In words: Cell viability assay (H929 10 FBS). Type of data set: cell-based. The conditions noted are these: Homo sapiens, NCI-H929, 24 hours, read-out: H929_10FBS IC50. The method, boiled down: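 H929 cells, 4000/well, in RPMI 1640 with 10% FBS, sodium pyruvate, HEPES and glucose were exposed to compound 24 h at 37 °C. Viability read as luminescence after 30-60 min at RT with CellTiter-Glo or ATPlite 1 Step.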

The conditions of data set [1]: from C=CCNC(=O)NS(=O)(=O)c1ccc2c(c1)N(C[C@@H]1CC[C@H]1[C@@H](C=C)OC)C[C@@]1(CCCc3cc(Cl)ccc31)CO2; rcm bond; 15-membered ring; Hoveyda-Grubbs II; DCE; 1.0 mM; 80.0 °C; 16.0 h.
The mark [2] stands for this setting: from C=CC(C)OC(C)(C)C(=O)NS(=O)(=O)c1ccc2c(c1)N(C[C@@H]1CC[C@H]1[C@@H](O)C=C)C[C@@]1(CCCc3cc(Cl)ccc31)CO2, rcm bond, 16-membered ring, Zhan catalyst, DCE, 2.1 mM, 45.0 °C, 2.0 h.
Setting [3] is: from C=CCN(C(=O)OC(C)(C)C)[C@H](C)C(=O)NS(=O)(=O)c1ccc2c(c1)N(C[C@@H]1CC[C@H]1[C@@H](O)C=C)C[C@@]1(CCCc3cc(Cl)ccc31)CO2, rcm bond, 16-membered ring, Zhan Catalyst 1B, DCE, 1.8 mM, 40.0 °C, 3.0 h.

pIC50, pKi: −log10 of the molar value. “And” between values parts separate entries of the source, which are not always exact repeats. Equal values may be shown once. Read-outs that look alike come from different tables or passages of the source.

MCL-1, sequence (Q07820 whole entry): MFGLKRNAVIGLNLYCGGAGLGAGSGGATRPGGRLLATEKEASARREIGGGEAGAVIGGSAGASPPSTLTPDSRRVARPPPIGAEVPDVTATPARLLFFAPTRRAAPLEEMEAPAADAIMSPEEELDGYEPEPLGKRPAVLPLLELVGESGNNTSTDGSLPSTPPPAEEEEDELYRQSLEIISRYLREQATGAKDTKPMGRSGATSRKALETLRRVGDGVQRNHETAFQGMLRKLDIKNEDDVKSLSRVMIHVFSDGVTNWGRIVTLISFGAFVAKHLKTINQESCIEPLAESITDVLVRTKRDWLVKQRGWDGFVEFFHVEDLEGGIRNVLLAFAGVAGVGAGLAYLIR

In turn, `CC(C)(C)OC(=O)N1CC=C[C@H](O)[C@@H]2CC[C@H]2CN2C[C@@]3(CCCc4cc(Cl)ccc43)COc3ccc(cc32)S(=O)(=O)NC(=O)C12CCC2` had a ring closure, isolated yield (from C=CCN(C(=O)OC(C)(C)C)C1(C(=O)NS(=O)(=O)c2ccc3c(c2)N(C[C@@H]2CC[C@H]2[C@@H](O)C=C)C[C@@]2(CCCc4cc(Cl)ccc42)CO3)CCC1, rcm bond, 16-membered ring, Zhan Catalyst II (resin supported), DCE, 1.0 mM, 60.0 °C, 3.0 h) of 93%.

`O=C1Cc2cncc(c2)OC[C@@H]2CC[C@H]2CN2C[C@@]3(CCCc4cc(Cl)ccc43)COc3ccc(cc32)S(=O)(=O)N1` [Example 104, (3R,6R,24S)-6′-Chloro-17,17-dioxo-spiro[8,22-dioxa-17-thia-1,11,16-triazapentacyclo[16.7.2.19,13.03,6.021,26]octacosa-9(28),10,12,18(27),19,21(26)-hexaene-24,1′-tetralin]-15-one] came in with a ring closure, isolated yield (from NS(=O)(=O)c1ccc2c(c1)N(C[C@@H]1CC[C@H]1COc1cncc(CC(=O)O)c1)C[C@@]1(CCCc3cc(Cl)ccc31)CO2, amide bond, 16-membered ring, EDCI/DMAP, DCM/DMF 9:1, 12.0 mM, 16.0 h) of 28%. Besides, the pKi at MCL-1 was greater than 9.00. Further, in the data set with H929 cells, the negative-log IC50 (pIC50) is less than 6.00.

For the molecule `CC1/C=C\[C@H](O)[C@@H]2CC[C@H]2CN2C[C@@]3(CCCc4cc(Cl)ccc43)COc3ccc(cc32)S(=O)(=O)NC(=O)C(C)(C)O1` (some centres unmarked), the ring closure, isolated yield under setting [2] turned out to be 15.2%.

Turning to `O=C1CC/C=C/COC[C@@H]2CC[C@H]2CN2C[C@@]3(CCCc4cc(Cl)ccc43)COc3ccc(cc32)S(=O)(=O)N1` [Example 99, (3R,6R,10E,23S)-6′-Chloro-16,16-dioxo-spiro[8,21-dioxa-16-thia-1,15-diazatetracyclo[15.7.2.03,6.020,25]hexacosa-10,17(26),18,20(25)-tetraene-23,1′-tetralin]-14-one], the ring closure, isolated yield (from C=CCCC(=O)NS(=O)(=O)c1ccc2c(c1)N(C[C@@H]1CC[C@H]1COCC=C)C[C@@]1(CCCc3cc(Cl)ccc31)CO2, rcm bond, 17-membered ring, Hoveyda-Grubbs II, DCM, 16.7 mM, 24.0 h) was 51%. Besides, the pKi at MCL-1 is 7.00 to 9.00. Besides, the negative logarithm of the IC50 (pIC50) in the data set on H929 cells is less than 6.00.

Under setting [3], `C[C@@H]1C(=O)NS(=O)(=O)c2ccc3c(c2)N(C[C@@H]2CC[C@H]2[C@@H](O)/C=C/CN1C(=O)OC(C)(C)C)C[C@@]1(CCCc2cc(Cl)ccc21)CO3` registered a ring closure, isolated yield of 44%.

The molecule `O=C1NS(=O)(=O)c2ccc3c(c2)N(C[C@@H]2CC[C@H]2[C@@H](O)C=CCOC12CCC2)C[C@@]1(CCCc2cc(Cl)ccc21)CO3` showed a ring closure, isolated yield (from C=CCOC1(C(=O)NS(=O)(=O)c2ccc3c(c2)N(C[C@@H]2CC[C@H]2[C@@H](O)C=C)C[C@@]2(CCCc4cc(Cl)ccc42)CO3)CCC1, rcm bond, 16-membered ring, Hoveyda-Grubbs II, DCE, 1.46 mM, 40.0 °C, 2.0 h) of 66.3%.

For the molecule `CO[C@@H]1C=CCN(C(=O)OC(C)(C)C)CC2(CCC2)C(=O)NS(=O)(=O)c2ccc3c(c2)N(C[C@@H]2CC[C@H]21)C[C@@]1(CCCc2cc(Cl)ccc21)CO3`, the ring closure, isolated yield (from C=CCN(CC1(C(=O)NS(=O)(=O)c2ccc3c(c2)N(C[C@@H]2CC[C@H]2[C@@H](C=C)OC)C[C@@]2(CCCc4cc(Cl)ccc42)CO3)CCC1)C(=O)OC(C)(C)C, rcm bond, 17-membered ring, Hoveyda-Grubbs II, DCE, 2.6 mM, 16.0 h) came to 80%.

`C[C@@H]1C(=O)NS(=O)(=O)c2ccc3c(c2)N(C[C@@H]2CC[C@H]2[C@@H](O)C=CCN1C(=O)OC(C)(C)C)C[C@@]1(CCCc2cc(Cl)ccc21)CO3`: the ring closure, isolated yield under setting [3] came out at 36%.

On to `CO[C@@H]1C=CCNC(=O)NS(=O)(=O)c2ccc3c(c2)N(C[C@@H]2CC[C@H]21)C[C@@]1(CCCc2cc(Cl)ccc21)CO3`, for which the ring closure, yield after HPLC in data set [1] was 7.2% and 31%.

In the case of `CC1/C=C/[C@H](O)[C@@H]2CC[C@H]2CN2C[C@@]3(CCCc4cc(Cl)ccc43)COc3ccc(cc32)S(=O)(=O)NC(=O)C(C)(C)O1` (some centres unmarked), the ring closure, isolated yield under setting [2] worked out at 62.4%.

In the case of `CC1(C)OC/C=C/[C@H](OC(=O)N[C@@H]2CCOC2)[C@@H]2CC[C@H]2CN2C[C@@]3(CCCc4cc(Cl)ccc43)COc3ccc(cc32)S(=O)(=O)NC1=O` [Example 62, [(3R,6R,7S,8E,22S)-6′-Chloro-12,12-dimethyl-13,15,15-trioxo-spiro[11,20-dioxa-15-thia-1,14-diazatetracyclo[14.7.2.03,6.019,24]pentacosa-8,16,18,24-tetraene-22,1′-tetralin]-7-yl] N-[(3R)-tetrahydrofuran-3-yl]carbamate], on MCL-1, the pKi is greater than 9.00. Further, the negative logarithm of the IC50 (pIC50) in the data set on H929 cells was greater than 6.30.

As to `CC1(C)OC/C=C/[C@H](OC(=O)N2CCOCC2)[C@@H]2CC[C@H]2CN2C[C@@]3(CCCc4cc(Cl)ccc43)COc3ccc(cc32)S(=O)(=O)NC1=O` [Example 172, [(3R,6R,7S,8E,22S)-6′-Chloro-12,12-dimethyl-13,15,15-trioxo-spiro[11,20-dioxa-15-thia-1,14-diazatetracyclo[14.7.2.03,6.019,24]pentacosa-8,16,18,24-tetraene-22,1′-tetralin]-7-yl]morpholine-4-carboxylate], at MCL-1, the pKi is greater than 9.00. Moreover, the pIC50 in the data set with H929 cells was greater than 6.30.

On to `CO[C@@H]1/C=C/COC2(CCC2)C(=O)NS(=O)(=O)c2ccc3c(c2)N(C[C@@H]2CC[C@H]21)C[C@@]1(CCCc2cc(Cl)ccc21)CO3` [Example 31, (3R,6R,7R,8E,22S)-6′-Chloro-7-methoxy-12,12-(1,3-propylene)-15,15-dioxo-spiro[11,20-dioxa-15-thia-1,14-diazatetracyclo[14.7.2.03,6.019,24]pentacosa[8,16(25),17,19(24)]tetraene-22,1′-tetralin]-13-one], for which the pKi at MCL-1 was 7.00 to 9.00. For the same molecule, the negative-log IC50 (pIC50) with H929 cells was less than 6.00.

On to `CN1C(=O)OC[C@@H]2CC[C@H]2CN2C[C@@]3(CCCc4cc(Cl)ccc43)COc3ccc(cc32)S(=O)(=O)NC(=O)N2CC[C@H]1C2` [Example 103, (3R,6R,11S,24S)-6′-Chloro-10-methyl-17,17-dioxo-spiro[8,22-dioxa-17λ^6-thia-1,10,14,16-tetrazapentacyclo[16.7.2.1^11,14.0{circumflex over (°)}3,6.0^21,26]octacosa-18,20,26-triene-24,1′-tetralin]-9,15-dione], for which the pKi on MCL-1 was greater than 9.00. In addition, the negative logarithm of the IC50 (pIC50) in the data set on H929 cells was less than 6.00.

As for `CCOC1CN(C(=O)O[C@H]2/C=C/CN(C)C3(CCC3)C(=O)NS(=O)(=O)c3ccc4c(c3)N(C[C@@H]3CC[C@H]32)C[C@@]2(CCCc3cc(Cl)ccc32)CO4)C1` [Example 244, [(3R,6R,7S,8E,22S)-6′-Chloro-11-methyl-12,12-(1,3-propylene)-13,15,15-trioxo-spiro[20-oxa-15-thia-1,11,14-triazatetracyclo[14.7.2.03,6.019,24]pentacosa-8,16,18,24-tetraene-22,1′-tetralin]-7-yl] 3-ethoxyazetidine-1-carboxylate], the pKi on MCL-1 is greater than 9.00. Besides, the pIC50 in the data set on H929 cells is greater than 6.30.

Regarding `CN1CCN(CCNC(=O)O[C@H]2/C=C/COC(C)(C)C(=O)NS(=O)(=O)c3ccc4c(c3)N(C[C@@H]3CC[C@H]32)C[C@@]2(CCCc3cc(Cl)ccc32)CO4)CC1` [Example 149, [(3R,6R,7S,8E,22S)-6′-Chloro-12,12-dimethyl-13,15,15-trioxo-spiro[11,20-dioxa-15-thia-1,14-diazatetracyclo[14.7.2.03,6.019,24]pentacosa-8,16,18,24-tetraene-22,1′-tetralin]-7-yl] N-[2-(4-methylpiperazin-1-yl)ethyl]carbamate], the pKi at MCL-1 is greater than 9.00. Further, the negative logarithm of the IC50 (pIC50) in the data set with H929 cells is greater than 6.30.

For `CC1(C)OC/C=C/[C@H](OCCN2CCCCC2)[C@@H]2CC[C@H]2CN2C[C@@]3(CCCc4cc(Cl)ccc43)COc3ccc(cc32)S(=O)(=O)NC1=O` [Example 263, (3R,6R,7S,8E,22S)-6′-Chloro-12,12-dimethyl-15,15-dioxo-7-[2-(1-piperidyl)ethoxy]spiro[11,20-dioxa-15-thia-1,14-diazatetracyclo[14.7.2.03,6.019,24]pentacosa-8,16,18,24-tetraene-22,1′-tetralin]-13-one], the pKi at MCL-1 is greater than 9.00. In addition, the negative logarithm of the IC50 (pIC50) in the data set on H929 cells is greater than 6.30.

Regarding `CN(C(=O)O[C@H]1/C=C/COC(C)(C)C(=O)NS(=O)(=O)c2ccc3c(c2)N(C[C@@H]2CC[C@H]21)C[C@]1(CO3)OCCc2cc(Cl)ccc21)C1CCOCC1` [Example 300, [(3R,6R,7S,8E,22R)-6′-Chloro-12,12-dimethyl-13,15,15-trio-spiro[11,20-dioxa-15-thia-1,14-diazatetracyclo[14.7.2.03,6.019,24]pentacosa-8,16,18,24-tetraene-22,1′-isochromane]-7-yl] N-methyl-N-tetrahydropyran-4-yl-carbamate], on MCL-1, the pKi was greater than 9.00. Besides, the pIC50 with H929 cells is greater than 6.00.

For the molecule `C[C@@H]1NC(=O)COC[C@@H]2CC[C@H]2CN2C[C@@]3(CCCc4cc(Cl)ccc43)COc3ccc(cc32)S(=O)(=O)NC1=O` [Example 197, (3R,6R,12S,22S)-6′-Chloro-12-methyl-15,15-dioxo-spiro[8,20-dioxa-15-thia-1,11,14-triazatetracyclo[14.7.2.0˜3,6.0˜19,24]pentacosa-16,18,24-triene-22,1′-tetralin]-10,13-dione], the pKi on MCL-1 is 7.00 to 9.00. In the data set with H929 cells, the pIC50 was less than 6.00.
